Data as given in article PMC10044725, “Antioxidant, Anti-Inflammatory and Anti-Diabetic Activities of Tectona grandis Methanolic Extracts, Fractions, and Isolated Compounds” (Antioxidants, 2023).
Marks after values point to notes of the source that are not given here.

Key:
[1] = DPPH free radical scavenging assay; conditions: isolated compounds; half scavenging concentration; read-out: DPPH Assay SC50
Protocol: The DPPH free radical scavenging activities of T. grandis methanolic extract, different fractions and its compounds were conducted according to Dr. Yang et al.. […] The absorbance was measured using a microplate reader at 517 nm, and ascorbic acid was used as a positive control. The DPPH scavenging activity was calculated according to the following formula: Scavenging activity (%) = [1 − (A1 − A2)/(A3 − A4)] × 100% (1) where A1 is the OD value of the tested samples, A2 is the OD value of the sample control, A3 is the OD value of the negative control and A4 is the OD value of the blank control. The analysis was performed in triplicates and the results were described as SC50 values.

TNF-α = TNF-α secretion in LPS-stimulated RAW 264.7 macrophages (ELISA); format: cell-based, mouse; conditions: 40 µM, LPS 1 µg/mL, 48 h, vs model control (p < 0.01)
Protocol: (§1) In order to increase cytokine production, macrophages were treated with LPS at a final concentration of 1 µg/mL, and then with T. grandis compounds at 40 µM. The compounds were solubilized in DMEM medium containing 0.1% DMSO. Dexamethasone was employed as a positive control (5 µg/mL). A centrifuge was used to separate the supernatant from the cells after 48 h of incubation, with three replicates per group. Quantification of TNF-α, IL-1β and IL-6 secretion was achieved by following the ELISA manufacturer's instructions. Then, absorbance was measured at 450 nm. Relative TNF-α, IL-1β and IL-6 expression was calculated according to Equation (4). Following the inflammatory factor test, cell viability was detected by CellTiter96® Aqueous One Solution Cell Proliferation Assay. Then, 20 μL/well CellTiter96® Aqueous One Solution Cell Growth Assay reagent was added to the plate and incubated at 37 °C for 8 h, absorbance was measured at […] and relative cell viability was calculated according to Equation (5). Relative content of inflammatory cytokines (%) = (A1/A2)/A3 × 100%(4) where A1 is the concentrations value of inflammatory cytokines of each group, A2 is the relative cell viability of each group (model group is 100) and A3 is the concentration of inflammatory cytokines of model group. Cell viability rate (%) = B1/B2 × 100%(5) where B1 is the OD value of each fraction group or positive control group and B2 is the OD value of the model control.

IL-6 = IL-6 secretion in LPS-stimulated RAW 264.7 macrophages (ELISA); format: cell-based, mouse; conditions: 40 µM, LPS 1 µg/mL, 48 h, vs model control (p < 0.05)
Protocol: as §1

IL-1β = IL-1β secretion in LPS-stimulated RAW 264.7 macrophages (ELISA); format: cell-based, mouse; conditions: 40 µM, LPS 1 µg/mL, 48 h, vs model control (p < 0.0001)
Protocol: as §1

[2] = ABTS radical cation scavenging assay (Trolox equivalent); conditions: compounds at 50 μM
Protocol: The ABTS radical cation (ABTS•+) scavenging activities were conducted in accordance with the instructions for the ABTS kit. The total antioxidant activity values were estimated using the Trolox equivalent antioxidant capacity test. The detection concentration of methanolic extract and different fractions was 80 μg/mL, and the detection concentration of compounds (1–23) was 50 μM. […] Then, 190 μL of ABTS working reagent was mixed with 10 μL sample and incubated at room temperature for 5 min. The absorbance was then measured using a microplate reader at 734 nm, and the scavenging activity was calculated according to Equation (2). The blank control group used DMSO to replace the sample. […] The analysis was performed in triplicates, 1.424, 0.0012 was a constant.

α-glucosidase = assay: α-Glucosidase inhibition assay (pNPG); format: biochemical; conditions: for Inhibitory Rate (%): at a concentration of 50 µM; for IC50: compounds
Protocol: The inhibitory effect on α-glucosidase was measured according to the previous report method with slight modifications. The 20 mM sample dissolved in DMSO was diluted to 50 μM in PBS, 10 μL sample was mixed with 50 μL of 0.1 μ/mL α-glucosidase solution in 0.1 M phosphate buffer (pH 6.5) in a 96-well microplate and 10 μL PBS was used as a blank control. The mixture was incubated at 37 °C for 10 min before adding 40 µL of 5 mM 4-nitrophenyl-α-D-glucopyranoside to each well. After 30 min of incubation at 37 °C, the reaction was terminated by adding 50 μL of 0.1 M Na2CO3 to this mixture. The released 4-nitrophenol absorbance measurements were carried out using a microplate reader (SpectraMax190, USA) at 405 nm.

[3] = Ferric reducing antioxidant power (FRAP) assay; conditions: compounds at 50 μM; Trolox equivalent
Protocol: The FRAP assay was determined in accordance with the instructions for the FRAP kit. The total antioxidant activity values were estimated using the Trolox equivalent antioxidant capacity test. Initially, the detection concentration of methanolic extract and different fractions was 80 μg/mL, and the detection concentration of compounds (1–23) was 50 μM. Then, 190 μL of FRAP working reagent was mixed with 10 μL sample and incubated at room temperature for 20 min. The absorbance was then measured using a microplate reader at 593 nm, and the scavenging activity was calculated according to Equation (3). The blank control group used DMSO to replace the sample. […] The analysis was performed in triplicates, 0.8054, 0.0134 was a constant.

BSA = assay: Prevention of AAPH-induced protein oxidative damage; set-up: species or system Bovine; conditions: AAPH 160 mM; residual BSA
Protocol: The protective activities of T. grandis methanolic extract, different fractions and its compounds 15 and 23 on protein oxidative damage were carried out using the method of Yang et al.. Initially, 20 μL BSA solutions (1 mg/mL) in PBS (0.1 M, pH 6.8) were mixed with different concentrations of fractions (40 μL) and compounds (40 μL) and incubated in water at 37 °C for 30 min. Then, 40 μL AAPH (160 mM) was added to the mixture and the reaction continued for 4 h. The control group used the same volume of PBS (0.1 M, pH 6.8) to replace AAPH. The pre-treated samples were added to 5 × SDS loading buffer and treated in water at 95 °C for 15 min. […] After electrophoresis, the gels were stained with Coomassie brilliant blue R-250 dye (0.25%, w/v), and then the gels were decolorized with the decolorizing solution. Finally, images were taken using the SDS-PAGE gel imaging system (ChampChemi 610, China) and the grayscale of Western blot was analyzed using Image J software.

pBR322 DNA = assay: Prevention of AAPH-induced DNA oxidative damage; conditions: AAPH 20 mM; p < 0.0001 vs model
Protocol: The effects of T. grandis methanolic extract, different fractions and its compounds 15, 19 and 23 on the prevention of DNA oxidative damage were carried out using the method of Han et al.. Initially, 8 μL pBR322 DNA (50 μg/mL) in PBS (0.1 M, pH 6.8) was mixed with different concentrations of T. grandis fractions and its compounds (12 μL) and incubated in water at 37 °C for 30 min. Then, 5 μL AAPH (20 mM) was added to the mixture and the reaction continued for 60 min. The control group used the same volume of PBS (0.1 M, pH 6.8) to replace AAPH. The pre-treated samples were mixed with 5 × DNA loading buffer, and the mixture (8 μL) was taken for 1.0% agarose gel electrophoresis for 25 min. After electrophoresis, the gels were stained with ethidium bromide for 20 min. Finally, images were taken using a DNA gel imaging system (ChampChemi 610, Beijing sage creation Co., Ltd. Beijing, China).

Row | SMILES | EC50 [1] [µM] | effect on TNF-α inflammatory factor level (TNF-α) | effect on IL-6 inflammatory factor expression (IL-6) | effect on IL-1β inflammatory factor level (IL-1β) | ABTS Assay [2] | Inhibitory Rate (%) (α-glucosidase) | IC50 (α-glucosidase) [µM] | FRAP Assay [3] | concentration at which a protective effect against protein oxidative damage begins (BSA) [µM] | concentration at which a protective effect against DNA oxidative damage begins (pBR322 DNA) [mM]
1 | O=c1cc(-c2ccc(O)c(O)c2)oc2cc(O[C@@H]3O[C@H](CO)[C@@H](O)[C@H](O)[C@H]3O)cc(O)c12 [Compound 1, luteolin-7-O-β-D-glucoside] | 8.09 ± 1.05 | could decrease | significant activities in reducing the expression | significant decrease | 0.08 ± 0.01 ^d mmol Trolox/L | 10.62 ± 1.39 ^d % | > 50 |  |  | 
2 | COC(=O)c1cc(O)c2c(c1)C(=O)c1ccccc1C2=O [Compound 13, 3-carbomethoxy-1-hydroxy-9,10-anthraquinone] | 3.56 ± 0.53 |  | significant activities in reducing the expression | significant decrease | 0.04 ± 0.00 ^d mmol Trolox/L | 13.84 ± 0.93 ^d % | > 50 | 0.01± 0.01 ^c mmol Trolox/L |  | 
3 | C[C@@H]1O[C@@H](O[C@@H]2[C@@H](O)[C@H](OCCc3ccc(O)c(O)c3)O[C@H](CO)[C@H]2OC(=O)/C=C/c2ccc(O)c(O)c2)[C@H](O)[C@H](O)[C@H]1O [Compound 15, verbascoside] | 1.99 ± 0.34 |  |  |  | 1.10 ± 0.77 ^a mmol Trolox/L | 18.30 ± 2.22 ^cd % | > 50 | 1.22 ± 0.11 ^a mmol Trolox/L | 40 | 0.6
4 | CC1CCC2(C(=O)OC3OC(CO)C(O)C(O)C3OC3OC(CO)C(O)C(O)C3O)CCC3(C)C(=CCC4C5(C)CC(O)C(O)C(C)(CO)C5CCC43C)C2C1(C)O [Compound 18, 2β,3β,19α,23-tetrahydroxy-urs-12-en-28-O-[β-D-glucopyranosyl (1-2)-β-D-glucopyranosyl] ester] | 8.45 ± 0.57 | could decrease | significant activities in reducing the expression | significant decrease |  | 22.91 ± 1.10 ^c % | > 50 | 0.39 ± 0.00 ^b mmol Trolox/L |  | 
